System: IL-1β release in U937 cells after NLRP3 activation
Assay: IC50 determination of IL-1β release inhibition in U937 cells
Type: cell-based
Conditions: Homo sapiens, U-937; PMA-differentiated U937 cells, LPS priming 5 h, nigericin; average of at least three experiments; read-out: IL-1β IC50 (nM) U937 cells
Description: Example 79: IC50 Determination of IL-1β Release Inhibition in U937 Cells The compounds of the present disclosure were tested for their ability to inhibit the IL-1β release in the U937 cells after NLRP3 activation. U937 cells (U-97 CRL 1593.2) were thawed following ATCC's initial culture procedure. […] The growth medium was composed of RPMI1640 medium (Quality Biological 112-040-101), 10% serum (Corning 35-076-CV), Pen/Strep (GIBCO 15140-122), 10 mM Hepes (Quality Biological 118-089-721), 2 mM Glutamax (GIBCO 35050-061), and 100 μg/mL normocin (Invivogen ant-nr)-Differentiating media was prepared by adding Phorbol 12-myristate 13-acetate (PMA) (AdipoGen AG-CN2-0010-M005) to growth medium. A cell suspension was prepared with differentiating media at 500k cells/ml. With an electronic pipet, 200 ul of cell suspension was added to each well (96w white plate Corning 3903) leaving columns 1 and 2 empty. Plates were left in the biosafety cabinet for 15 min and then placed in incubator for 90 hours. Priming media was prepared with assay medium consisting of RPMI 1640 medium, 10 mM Hepes, 2 mM Glutamax and Pen/Strep plus 1 μg/mL LPS (Invivogen tlrl-3pelps). Differentiating media was manually removed and 80 ul of priming media was added to each well with an electronic pipet. The plates were placed in the incubator for 5 hours. […] DMSO). An hour prior to the end of LPS incubation, a separate 96 deep well plate, Plate B, was prepared with 400 μL of assay media per well, then […] of the stock DMSO solution from Plate A was added to each corresponding well. Plate B was covered to avoid media evaporation. In a 50 mL tube, a solution of nigericin in assay media at 50 uM/mL concentration was prepared. To a new 96 deep well plate, Plate C, 200 μL of this nigericin containing media was dispensed to each well and 1 μL of the test compounds from Plate B to each corresponding well was added. Plate C was covered to avoid media evaporation. After 5 hours of priming, all the media from the LPS treated U937 cells was removed manually. To this plate of primed cells, 80 μL/well test compounds from Plate B (assay media+compound) was added in duplicate columns (5 compounds tested per plate). The plate was placed in an incubator for 30 min. […] The plate was placed back in the incubator for 1 hour. At the end of 1 hour, the supernatant from this test plate was transferred to a new 96 well V bottom polypropylene plate which was frozen immediately at -80° C. The plate was transferred to -20° C. the next day and awaited further determination of cytokine IL-Ip level. The release of IL-1β into the cell media was determined by MSD® Multi-Spot Assay System (V-Plex, IL-1B kit, […]-4). Following the manufacture's protocol and using the Alternate Protocol 3, Dilute-In-Plate protocol specifically, the level of IL-IP in the above collected supernatant plate was measured as electrochemiluminescent signals. Using MSD DISCOVERY WORKBENCH® analysis software, the signals were converted to the concentration of IL-1β in each well. The IC50 values of the compounds were calculated using the Graph Pad Prism software based on the IL-1β concentration determined. The detection range of IL-1β using MSD kit was approximately […] (based on various lots of standards purchased from MSD).

IC50 [nM] | SMILES
5 to 50 | Cc1oc(S(=O)(=O)NC(=O)Nc2c3c(c(F)c4c2CCC4)CCC3)cc1CN(C)CC1(CO)CCC1 [Example 47, N-((8-fluoro-1,2,3,5,6,7-hexahydro-s-indacen-4-yl)carbamoyl)-4-((((1-(hydroxymethyl)cyclobutyl)methyl)(methyl)amino)methyl)-5-methylfuran-2-sulfonamide]
> 500 | CN(C(=O)c1coc(S(=N)(=O)NC(=O)Nc2c3c(cc4c2CCC4)CCC3)c1)[C@H]1C[C@H](N)C1 (some centres unmarked) [Example 16]
5 to 50 | N=S(=O)(NC(=O)Nc1c2c(cc3c1CCC3)CCC2)c1cc(CN)co1 (centres unmarked) [Example 22, 4-(aminomethyl)-N-((1,2,3,5,6,7-hexahydro-s-indacen-4-yl)carbamoyl)furan-2-sulfonimidamide]
5 to 50 | CN(Cc1cc(S(=O)(=O)NC(=O)Nc2c3c(c(F)c4c2CCC4)CCC3)nn1C)CC1(CO)CCC1 [Example 65, N-((8-fluoro-1,2,3,5,6,7-hexahydro-s-indacen-4-yl)carbamoyl)-5-((((1-(hydroxymethyl)cyclobutyl)methyl)(methyl)amino)methyl)-1-methyl-1H-pyrazole-3-sulfonamide]
5 to 50 | CC(C)(O)c1cc(S(=O)(=O)NC(=O)Nc2c3c(cc4c2CCC4)CCC3)oc1CN1CCNCC1 [Example 70, N-((1,2,3,5,6,7-hexahydro-s-indacen-4-yl)carbamoyl)-4-(2-hydroxypropan-2-yl)-5-(piperazin-1-ylmethyl)furan-2-sulfonamide]
50 to 500 | CN(Cc1cc(S(=O)(=O)NC(=O)Nc2c3c(c(F)c4c2CCC4)CCC3)nn1C)CC1(CO)CCOCC1 [Example 64, N-((8-fluoro-1,2,3,5,6,7-hexahydro-S-indacen-4-yl)carbamoyl)-5-((((4-(hydroxymethyl)tetrahydro-2H-pyran-4-yl)methyl)(methyl)amino)methyl)-1-methyl-1H-pyrazole-3-sulfonamide]
5 to 50 | Cc1oc(S(=O)(=O)NC(=O)Nc2c3c(cc4c2CCC4)CCC3)cc1CN(C)CC1(CO)CCC1 [Example 34, N-((1,2,3,5,6,7-hexahydro-s-indacen-4-yl)carbamoyl)-4-((((1-(hydroxymethyl)cyclobutyl)methyl)(methyl)amino)methyl)-5-methylfuran-2-sulfonamide]
5 to 50 | Cc1cc(S(=O)(=O)NC(=O)Nc2c3c(c(F)c4c2CCC4)CCC3)oc1CN1C[C@H](O)[C@@H](F)C1 [Example 56, N-((8-fluoro-1,2,3,5,6,7-hexahydro-s-indacen-4-yl)carbamoyl)-5-(((3S,4S)-3-fluoro-4-hydroxypyrrolidin-1-yl)methyl)-4-methylfuran-2-sulfonamide]
50 to 500 | O=C(Nc1c2c(cc3c1CCC3)CCC2)NS(=O)(=O)c1cc(CN2CC(O)C2)co1 [Example 32, N-((1,2,3,5,6,7-hexahydro-s-indacen-4-yl)carbamoyl)-4-((3-hydroxyazetidin-1-yl)methyl)furan-2-sulfonamide]
5 to 50 | CN(Cc1cc(S(=O)(=O)NC(=O)Nc2c3c(c(Cl)c4c2CCC4)CCC3)nn1C)CC1(O)CCC1 [Example 68, N-((8-chloro-1,2,3,5,6,7-hexahydro-s-indacen-4-yl)carbamoyl)-5-((((1-hydroxycyclobutyl)methyl)(methyl)amino)methyl)-1-methyl-1H-pyrazole-3-sulfonamide]
5 to 50 | Cc1oc(S(=O)(=O)NC(=O)Nc2c3c(c(F)c4c2CCC4)CCC3)cc1CN1C[C@@H](F)[C@@H](O)C1 [Example 40, N-((8-fluoro-1,2,3,5,6,7-hexahydro-s-indacen-4-yl)carbamoyl)-4-(((3R,4S)-3-fluoro-4-hydroxypyrrolidin-1-yl)methyl)-5-methylfuran-2-sulfonamide]
50 to 500 | CC(C)n1nc(S(=N)(=O)NC(=O)Nc2c3c(cc4c2CCC4)CCC3)cc1CN (centres unmarked) [Example 77, 5-(aminomethyl)-N-((1,2,3,5,6,7-hexahydro-s-indacen-4-yl)carbamoyl)-1-isopropyl-1H-pyrazole-3-sulfonimidamide]
50 to 500 | N=S(=O)(NC(=O)Nc1c2c(cc3c1CCC3)CCC2)c1cc(CN2CC3(CC(O)C3)C2)co1 (centres unmarked) [Example 2, N-((1,2,3,5,6,7-hexahydro-s-indacen-4-yl)carbamoyl)-4-((6-hydroxy-2-azaspiro[3.3]heptan-2-yl)methyl)furan-2-sulfonimidamide]
5 to 50 | Cc1cc(S(=O)(=O)NC(=O)Nc2c3c(c(F)c4c2CCC4)CCC3)oc1CN1C[C@@H](O)[C@@H](F)C1 [Example 53, N-((8-fluoro-1,2,3,5,6,7-hexahydro-s-indacen-4-yl)carbamoyl)-5-(((38,4R)-3-fluoro-4-hydroxypyrrolidin-1-yl)methyl)-4-methylfuran-2-sulfonamide]
5 to 50 | CC(C)n1nc(S(=O)(=O)NC(=O)Nc2c3c(c(F)c4c2CCC4)CCC3)cc1CN1CC[C@H](O)C1 [Example 67, (S)—N-((8-fluoro-1,2,3,5,6,7-hexahydro-s-indacen-4-yl)carbamoyl)-5-((3-hydroxypyrrolidin-1-yl)methyl)-1-isopropyl-1H-pyrazole-3-sulfonamide]
5 to 50 | Cc1oc(S(=O)(=O)NC(=O)Nc2c3c(c(Cl)c4c2CCC4)CCC3)cc1CN1CC[C@H](O)C1 [Example 49, (S)—N-((8-chloro-1,2,3,5,6,7-hexahydro-s-indacen-4-yl)carbamoyl)-4-((3-hydroxypyrrolidin-1-yl)methyl)-5-methylfuran-2-sulfonamide]
< 5 | CC(C)n1nc(S(=O)(=O)NC(=O)Nc2c3c(c(F)c4c2CCC4)CCC3)cc1CN(C)CC1(O)CCC1 [Example 66, N-((8-fluoro-1,2,3,5,6,7-hexahydro-s-indacen-4-yl)carbamoyl)-5-((((1-hydroxycyclobutyl)methyl)(methyl)amino)methyl)-1-isopropyl-1H-pyrazole-3-sulfonamide]
50 to 500 | CN(C(=O)c1coc(S(=N)(=O)NC(=O)Nc2c3c(cc4c2CCC4)CCC3)c1)C1CNC1 (centres unmarked) [Example 17, N-(azetidin-3-yl)-5-(N-((1,2,3,5,6,7-hexahydro-s-indacen-4-yl)carbamoyl)sulfamidimidoyl)-N-methylfuran-3-carboxamide]
5 to 50 | CC(C)n1nc(S(=O)(=O)NC(=O)Nc2c3c(c(Cl)c4c2CCC4)CCC3)cc1CN(C)CC1(O)CCC1 [Example 69, N-((8-chloro-1,2,3,5,6,7-hexahydro-s-indacen-4-yl)carbamoyl)-5-((((1-hydroxycyclobutyl)methyl)(methyl)amino)methyl)-1-isopropyl-1H-pyrazole-3-sulfonamide]
5 to 50 | Cc1oc(S(=O)(=O)NC(=O)Nc2c3c(c(F)c4c2CCC4)CCC3)cc1CN(C)CC1(CO)CCOCC1 [Example 46, N-((8-fluoro-1,2,3,5,6,7-hexahydro-s-indacen-4-yl)carbamoyl)-4-((((4-(hydroxymethyl)tetrahydro-2H-pyran-4-yl)methyl)(methyl)amino)methyl)-5-methylfuran-2-sulfonamide]
5 to 50 | Cc1cc(S(=O)(=O)NC(=O)Nc2c3c(c(F)c4c2CCC4)CCC3)oc1CN1C[C@@H](F)[C@@H](O)C1 [Example 55, N-((8-fluoro-1,2,3,5,6,7-hexahydro-s-indacen-4-yl)carbamoyl)-5-(((3R,4S)-3-fluoro-4-hydroxypyrrolidin-1-yl)methyl)-4-methylfuran-2-sulfonamide]
5 to 50 | CN(C(=O)c1coc(S(=N)(=O)NC(=O)Nc2c3c(cc4c2CCC4)CCC3)c1)[C@H]1C[C@H](O)C1 (some centres unmarked) [Example 15, 5-(N-((1,2,3,5,6,7-hexahydro-s-indacen-4-yl)carbamoyl)sulfamidimidoyl)-N-((1r,3r)-3-hydroxycyclobutyl)-N-methylfuran-3-carboxamide]

SMILES | IC50 [nM]
N=S(=O)(NC(=O)Nc1c2c(cc3c1CCC3)CCC2)c1cc(CO[C@H]2C[C@H](N)C2)co1 (some centres unmarked) [Example 18, 4-(((1r,3r)-3-aminocyclobutoxy)methyl)-N-((1,2,3,5,6,7-hexahydro-s-indacen-4-yl)carbamoyl)furan-2-sulfonimidamide] | 5 to 50

— patent US20250388568A1, “NLRP3 INHIBITORS” (Kodiak Sciences Inc., priority 2022, published 2025)
